Assays:
[1] = Liquid; for mass density: Vibrating tube method; for vapor or sublimation pressure: Ebulliometric method (Recirculating still)
[2] = refractive index (Na D-line) (dimensionless); conditions: 298.15 K; 101.33 kPa; Liquid; Standard Abbe refractometry
[3] = xn = mol fraction of the nth substance listed; conditions: Liquid, Vibrating tube method

CCOC(=O)CC [ethyl propanoate]
[1]
Conditions	mass density [kg/m3]	vapor or sublimation pressure [kPa]
288.15 K	895.58	–
298.15 K	884.15	–
308.15 K	872.62	–
318.15 K	861.08	–
328.15 K	849.41	–
348.07 K	–	45
349.55 K	–	47.5
350.96 K	–	50
352.34 K	–	52.5
353.66 K	–	55
354.91 K	–	57.5
356.15 K	–	60
357.32 K	–	62.5
358.48 K	–	65
359.57 K	–	67.5
360.66 K	–	70
361.72 K	–	72.5
362.74 K	–	75
363.71 K	–	77.5
364.69 K	–	80
365.63 K	–	82.5
366.55 K	–	85
367.47 K	–	87.5
368.35 K	–	90
369.21 K	–	92.5
370.06 K	–	95
370.87 K	–	97.5
371.73 K	–	100
372.09 K	–	101.32
372.18 K	–	101.32
373.31 K	–	105
374.84 K	–	110
376.29 K	–	115
377.7 K	–	120
379.08 K	–	125
380.4 K	–	130
381.67 K	–	135
382.91 K	–	140
384.15 K	–	145
385.32 K	–	150
386.47 K	–	155
387.6 K	–	160
388.69 K	–	165
389.77 K	–	170
390.81 K	–	175
391.83 K	–	180
392.85 K	–	185
393.81 K	–	190
394.77 K	–	195
395.72 K	–	200
396.64 K	–	205
397.55 K	–	210
398.43 K	–	215
399.31 K	–	220
400.17 K	–	225
401 K	–	230
401.83 K	–	235
402.65 K	–	240
403.46 K	–	245
404.25 K	–	250
405.04 K	–	255
405.79 K	–	260
406.56 K	–	265
407.3 K	–	270
408.03 K	–	275
408.75 K	–	280

Conditions	refractive index
[2]	1.3811

CCOC(=O)CC [ethyl propanoate] + CCCCC
mass density [kg/m3], [3]
Conditions	288.15 K	298.15 K
x1 = 0.0503	643.39	–
x1 = 0.0545	–	634.55
x1 = 0.1013	–	646.47
x1 = 0.1017	656.5	–
x1 = 0.1511	669.25	–
x1 = 0.1538	–	659.85
x1 = 0.2025	682.62	–
x1 = 0.2051	–	673.1
x1 = 0.254	–	685.81
x1 = 0.2551	696.41	–
x1 = 0.3012	708.53	–
x1 = 0.3038	–	698.8
x1 = 0.3525	722.09	–
x1 = 0.3594	–	713.37
x1 = 0.3947	733.28	–
x1 = 0.4062	–	725.7
x1 = 0.4496	747.92	–
x1 = 0.4575	–	739.37
x1 = 0.5009	761.7	–
x1 = 0.5083	–	752.81
x1 = 0.5519	775.33	–
x1 = 0.56	–	766.57
x1 = 0.5987	787.9	–
x1 = 0.606	–	778.84
x1 = 0.6449	800.24	–
x1 = 0.6559	–	792.17
x1 = 0.6974	814.34	–
x1 = 0.7061	–	805.64
x1 = 0.7488	828.17	–
x1 = 0.7498	–	817.26
x1 = 0.7974	841.13	–
x1 = 0.8007	–	830.93
x1 = 0.8477	854.65	–
x1 = 0.8535	–	844.98
x1 = 0.8951	867.4	–
x1 = 0.9054	–	858.85
x1 = 0.9482	881.6	–
x1 = 0.9511	–	871.06
x1 = 1	895.58	884.15

CCCCCCC [heptane]
[1]
Conditions	mass density [kg/m3]	vapor or sublimation pressure [kPa]
288.15 K	688.16	–
298.15 K	679.62	–
308.15 K	670.96	–
318.15 K	662.33	–
328.15 K	653.61	–
371.38 K	–	101.32

Conditions	refractive index
[2]	1.3853

CCCCCCC [heptane] + CCC(=O)OC
[3], x2 = 0
Conditions	mass density [kg/m3]
288.15 K	688.16
298.15 K	679.62
308.15 K	670.96
318.15 K	662.33
328.15 K	653.61

CCCCCCC [heptane] + CCOC(=O)CC
[3], x2 = 0
Conditions	mass density [kg/m3]
288.15 K	688.16
298.15 K	679.62
308.15 K	670.96
318.15 K	662.33
328.15 K	653.61

CCC(=O)OC [methyl propanoate]
[1]
Conditions	mass density [kg/m3]	vapor or sublimation pressure [kPa]
288.15 K	921.21	–
298.15 K	909.1	–
308.15 K	896.91	–
318.15 K	884.71	–
328.15 K	872.22	–
335.15 K	–	55
336.38 K	–	57.5
337.53 K	–	60
338.61 K	–	62.5
339.76 K	–	65
340.79 K	–	67.5
341.81 K	–	70
342.79 K	–	72.5
343.75 K	–	75
344.68 K	–	77.5
345.59 K	–	80
346.49 K	–	82.5
347.35 K	–	85
348.2 K	–	87.5
349.03 K	–	90
349.83 K	–	92.5
350.62 K	–	95
352.34 K	–	100
352.72 K	–	101.32
352.75 K	–	101.32
353.81 K	–	105
355.23 K	–	110
356.53 K	–	115
357.87 K	–	120
359.16 K	–	125
360.42 K	–	130
361.65 K	–	135
362.8 K	–	140
363.97 K	–	145
365.05 K	–	150
366.15 K	–	155
367.22 K	–	160
368.27 K	–	165
369.26 K	–	170
370.25 K	–	175
371.22 K	–	180
372.2 K	–	185
373.12 K	–	190
374.01 K	–	195
374.9 K	–	200
375.77 K	–	205
376.63 K	–	210
377.52 K	–	215
378.3 K	–	220
379.14 K	–	225
379.96 K	–	230
380.72 K	–	235
381.51 K	–	240
382.25 K	–	245
383.03 K	–	250
383.74 K	–	255
384.47 K	–	260
385.21 K	–	265
385.87 K	–	270
386.61 K	–	275
387.28 K	–	280

Conditions	refractive index
[2]	1.3743

CCC(=O)OC [methyl propanoate] + CCCCC
mass density [kg/m3], [3], 101 kPa
Conditions	288.15 K	298.15 K
x1 = 0.0597	644.23	–
x1 = 0.0641	–	635.16
x1 = 0.0925	651.9	–
x1 = 0.0938	–	642.1
x1 = 0.1482	–	654.98
x1 = 0.1507	665.97	–
x1 = 0.204	679.21	–
x1 = 0.2099	–	670.19
x1 = 0.2574	–	682.36
x1 = 0.2614	693.95	–
x1 = 0.3127	707.38	–
x1 = 0.3135	–	696.99
x1 = 0.3382	714.27	–
x1 = 0.3389	–	703.72
x1 = 0.3927	729.16	–
x1 = 0.3942	–	718.75
x1 = 0.442	743.09	–
x1 = 0.4459	–	733.12
x1 = 0.4985	759.2	–
x1 = 0.4999	–	748.56
x1 = 0.5461	773.25	–
x1 = 0.5478	–	762.56
x1 = 0.5921	–	775.9
x1 = 0.5926	787.12	–
x1 = 0.6407	801.96	–
x1 = 0.6434	–	791.33
x1 = 0.6898	–	805.83
x1 = 0.69	817.19	–
x1 = 0.7559	–	826.88
x1 = 0.7581	839.01	–
x1 = 0.8051	–	842.74
x1 = 0.8072	855.11	–
x1 = 0.8487	868.74	–
x1 = 0.8499	–	857.54
x1 = 0.8891	882.39	–
x1 = 0.8915	–	871.51
x1 = 0.9538	904.73	–
x1 = 0.9601	–	894.98
x1 = 1	921.21	909.1

CCCCCCCCC [nonane]
[1]
Conditions	mass density [kg/m3]	vapor or sublimation pressure [kPa]
288.15 K	721.65	–
298.15 K	713.85	–
308.15 K	705.96	–
318.15 K	698.06	–
328.15 K	690.17	–
423.9 K	–	101.32

Conditions	refractive index
[2]	1.4032

CCCCCCCCC [nonane] + CCC(=O)OC
[3], x2 = 0
Conditions	mass density [kg/m3]
288.15 K	721.65
298.15 K	713.85
308.15 K	705.96
318.15 K	698.06
328.15 K	690.17

CCCCCCCCC [nonane] + CCOC(=O)CC
[3], x2 = 0
Conditions	mass density [kg/m3]
288.15 K	721.65
298.15 K	713.85
308.15 K	705.96
318.15 K	698.06
328.15 K	690.17

CCCCC [pentane]
[1]
Conditions	mass density [kg/m3]	vapor or sublimation pressure [kPa]
288.15 K	630.78	–
298.15 K	620.9	–
298.91 K	–	70
299.82 K	–	72.5
300.77 K	–	75
301.65 K	–	77.5
302.52 K	–	80
303.38 K	–	82.5
304.22 K	–	85
305.02 K	–	87.5
305.81 K	–	90
306.62 K	–	92.5
307.37 K	–	95
308.12 K	–	97.5
308.87 K	–	100
309.23 K	–	101.32
310.28 K	–	105
311.64 K	–	110
312.97 K	–	115
314.26 K	–	120
315.5 K	–	125
316.7 K	–	130
317.87 K	–	135
319.01 K	–	140
320.11 K	–	145
321.17 K	–	150
322.24 K	–	155
323.25 K	–	160
324.26 K	–	165
325.24 K	–	170
326.18 K	–	175
327.12 K	–	180
328.03 K	–	185
328.93 K	–	190
329.8 K	–	195
330.66 K	–	200
331.51 K	–	205
332.34 K	–	210
333.15 K	–	215
333.95 K	–	220
334.73 K	–	225
335.5 K	–	230
336.28 K	–	235
337.02 K	–	240
337.75 K	–	245
338.47 K	–	250
339.19 K	–	255
339.89 K	–	260
340.59 K	–	265
341.27 K	–	270
341.94 K	–	275
342.6 K	–	280

Conditions	mass density [kg/m3]
[1], 298.15 K, 101 kPa	620.91

Conditions	refractive index
[2]	1.3547

CCCCC [pentane] + CCC(=O)OC
[3], 101 kPa, x2 = 0
Conditions	mass density [kg/m3]
288.15 K	630.78
298.15 K	620.91

CCCCC [pentane] + CCOC(=O)CC
[3], x2 = 0
Conditions	mass density [kg/m3]
288.15 K	630.78
298.15 K	620.9

Source: the NIST ThermoML archive (doi:10.1021/je4009415)
